Results published in PubChem BioAssay AID2060486 (Molecular Pharmacology Branch, DTP, NCI, 2025).

Tested on: IGROV1 complex spheroids (HUVEC, MSC), viability % test/control
Assay: Anticancer human tumor IGROV1 cell line growth inhibition [GQUAD];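 note: spheroids exposed to compounds for 7 days before readout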;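 for viability, T/C: 100% = DMSO vehicle control viability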
Settings: for IC50: curve of first compound; for viability, T/C: stronger effect = lower value
In short: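 Tumor cells were grown as complex spheroids with HUVEC endothelial cells and mesenchymal stem cells as stroma. G-quadruplex stabilizers were combined with targeted agents over half-log dilutions from near the clinical Cmax, or from 10 microM.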

CC(=O)O[C@H]1C(=O)[C@@]2(C)[C@H]([C@H](OC(=O)c3ccccc3)[C@]3(O)C[C@H](OC(=O)[C@H](O)[C@@H](NC(=O)c4ccccc4)c4ccccc4)C(C)=C1C3(C)C)[C@]1(OC(C)=O)CO[C@@H]1C[C@@H]2O + Cc1[nH]c2ccc(F)cc2c1-c1nc2c3cccnc3c3ncccc3c2[nH]1
IC50 (second compound 0.0316 µM): < 31.6 nM
IC50 (second compound 0.1 µM): < 31.6 nM
IC50 (second compound 0.316 µM): < 31.6 nM
IC50 (second compound 1 µM): < 31.6 nM
IC50 (second compound 3.16 µM): < 31.6 nM
IC50 (second compound 10 µM): < 31.6 nM
viability, T/C (second compound 0.0316 µM, first compound 0.0316 µM): 8.39%
viability, T/C (second compound 0.0316 µM, first compound 0.1 µM): 5.36%
viability, T/C (second compound 0.0316 µM, first compound 0.316 µM): 5.66%
viability, T/C (second compound 0.0316 µM, first compound 1 µM): 4.68%
viability, T/C (second compound 0.0316 µM, first compound 3.16 µM): 4.86%
viability, T/C (second compound 0.0316 µM, first compound 10 µM): 4.6%
viability, T/C (second compound 0.1 µM, first compound 0.0316 µM): 7.76%
viability, T/C (second compound 0.1 µM, first compound 0.1 µM): 6.43%
viability, T/C (second compound 0.1 µM, first compound 0.316 µM): 6.02%
viability, T/C (second compound 0.1 µM, first compound 1 µM): 4.48%
viability, T/C (second compound 0.1 µM, first compound 3.16 µM): 4.3%
viability, T/C (second compound 0.1 µM, first compound 10 µM): 4.13%
viability, T/C (second compound 0.316 µM, first compound 0.0316 µM): 4.55%
viability, T/C (second compound 0.316 µM, first compound 0.1 µM): 3.65%
viability, T/C (second compound 0.316 µM, first compound 0.316 µM): 3.47%
viability, T/C (second compound 0.316 µM, first compound 1 µM): 3.01%
viability, T/C (second compound 0.316 µM, first compound 3.16 µM): 2.72%
viability, T/C (second compound 0.316 µM, first compound 10 µM): 2.99%
viability, T/C (second compound 1 µM, first compound 0.0316 µM): 2.66%
viability, T/C (second compound 1 µM, first compound 0.1 µM): 2.5%
viability, T/C (second compound 1 µM, first compound 0.316 µM): 2.5%
viability, T/C (second compound 1 µM, first compound 1 µM): 2.49%
viability, T/C (second compound 1 µM, first compound 3.16 µM): 2.3%
viability, T/C (second compound 1 µM, first compound 10 µM): 2.06%
viability, T/C (second compound 3.16 µM, first compound 0.0316 µM): 2.72%
viability, T/C (second compound 3.16 µM, first compound 0.1 µM): 2.23%
viability, T/C (second compound 3.16 µM, first compound 0.316 µM): 2.86%
viability, T/C (second compound 3.16 µM, first compound 1 µM): 2.81%
viability, T/C (second compound 3.16 µM, first compound 3.16 µM): 2.28%
viability, T/C (second compound 3.16 µM, first compound 10 µM): 2.17%
viability, T/C (second compound 10 µM, first compound 0.0316 µM): 1.84%
viability, T/C (second compound 10 µM, first compound 0.1 µM): 2.38%
viability, T/C (second compound 10 µM, first compound 0.316 µM): 2.16%
viability, T/C (second compound 10 µM, first compound 1 µM): 2.22%
viability, T/C (second compound 10 µM, first compound 3.16 µM): 2.3%
viability, T/C (second compound 10 µM, first compound 10 µM): 2.4%
